Measured values taken from patent US7601739B2, “Compounds having antiestrogenic and tissue selective estrogenic properties, and compounds with anti-androgenic properties for treatment of prostate cancer and androgen receptor dependent diseases” (Virgina Commonwealth University, priority 2006, dated 2009).

Tests used:
[1] = biological target: T1, hERα (Homo sapiens, UniProt P03372); experiment: Transient transfection reporter assay for hERα in MCF-7 cells; format: cell-based; design: Relative Estrogenic Activity: dose or concentration left out as unconfirmed; conditions: for Relative Estrogenic Activity: MCF-7 cells transfected with hERα, DMSO set as 1; for estrogenic effect: MCF-7 cells, hERα, compared with DMSO and tamoxifen; for Relative Antiestrogenic Activity at 2.5 μM: with 1 nM estradiol, 1 nM E2 used as reference (1); for antiestrogenic / inhibition activity: against 1 nM estrogen
T1 construct: mammalian expression plasmid containing full length human ER cDNA, pCMV-hER; expressed in transfected cells; host or cells: MCF-7 human breast cancer cells
T1 sequence (P03372 1-595): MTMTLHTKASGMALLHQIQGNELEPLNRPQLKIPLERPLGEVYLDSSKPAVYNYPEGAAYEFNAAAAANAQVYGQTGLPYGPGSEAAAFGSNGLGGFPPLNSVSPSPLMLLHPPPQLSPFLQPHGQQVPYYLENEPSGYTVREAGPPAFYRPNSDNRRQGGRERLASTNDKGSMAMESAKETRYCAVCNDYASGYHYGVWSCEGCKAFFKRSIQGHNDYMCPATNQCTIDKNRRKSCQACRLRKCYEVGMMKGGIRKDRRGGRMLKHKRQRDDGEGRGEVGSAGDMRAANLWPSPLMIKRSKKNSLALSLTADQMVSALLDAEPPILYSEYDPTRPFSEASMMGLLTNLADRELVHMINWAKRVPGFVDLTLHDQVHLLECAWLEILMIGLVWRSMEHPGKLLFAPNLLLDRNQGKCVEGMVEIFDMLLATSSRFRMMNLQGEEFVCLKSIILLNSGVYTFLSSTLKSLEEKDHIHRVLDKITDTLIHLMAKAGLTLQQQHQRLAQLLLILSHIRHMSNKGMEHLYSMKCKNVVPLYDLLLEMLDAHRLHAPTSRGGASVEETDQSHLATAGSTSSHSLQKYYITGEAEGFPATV
Procedure: For the transient transfection reporter assays, the cells were plated in triplicate in 12-well plates at a density of 300000 cells/well in the phenol red-free DMEM (GIBCO/BRL, Grand Island, N.Y.) supplemented with 10% charcoal-stripped fetal bovine serum (Hyclone, Logan, Utah), Penicillin (100 unit/ml)/Streptomycin ([…]), 2 mML-glutamine and 1 mM sodium Pyruvate. 24 hrs later, the cells were transfected with three plasmids by using Superfect transfection kit (Qiagen, Valencia, Calif.). For the detection of hER activity, cells were transfected with 2 g hER expression plasmid (pCMV-ER ), 6 g luciferase reporter plasmid containing estrogen receptor response element (PGL-TATA-Luc), and 600 ng normalization control, β-galactosidase reporter plasmid (pCMV ). For the detection of hER activity, cells were transfected with 3 ug hER expression plasmid (pcDNA3.1-hER), 6 g luciferase reporter plasmid containing estrogen receptor response element (PGL-TATA-Luc), and 600 ng pCMV. For determining the influence of ER's major coactivator in breast, AIB 1, 2 g pcDNA3.1-AIB1 was added into the transfection plasmid solution mentioned previously.
The transfected cells were rinsed with PBS and treated with various concentrations of test molecules and one […] (vehicle, DMSO or methanol) in phenol red-free culture medium. After incubation for further 24 hrs, the cells were washed with PBS and lysed with lysis buffer (Pierce, Rockford, Ill.). The lysate was used to determine the luciferase activity for ER's activity and the β-galactosidase activity for the normalization of transfection efficiency.
For the luciferase activity assay, 20 μl of lysate and 100 μl luciferase assay buffer (Promega, Madison, Wis.) were added into a well of 96-well plate. The luminescence was detected by using luminescence microplate reader, LumiCount (Packard, Boston, Mass.). For the β-galactosidase activity assay, […] β-galactosidase assay buffer (Clontech, Palo Alto, Calif.) were added into a well of 96-well plate. The β-galactosidase activity was measured as luminescence strength by using luminescence microplate reader, LumiCount (Packard, Boston, Mass.). The normalized reporter activity was calculated by the luciferase activity divided by that of β-galactosidase.
The transient transfection reporter assay was used to determine the estrogenic or antiestrogenic activity of tested compounds in employed human breast cancer cells, MCF-7 cells that are cotransfected with hERα expression and reporter plasmids. […] […] The estrogenic (antiestrogenic) activity was determined by dividing the luciferase activity by the β-galactosidase activity. To determine the influence of estrogen receptor's major coactivator in breast cancer, AIB1, for the compounds' estrogenic activity, the expression vector of AIB1 was additionally cotransfected with the plasmids mentioned above.

[2] = tested on: hER; experiment: Fluorescence-based competitive binding assay for hER (displacement of fluormone ES2); design: species or system human; conditions: for Relative Binding Affinity: RBA = IC50 of tamoxifen/IC50 of test molecule, tamoxifen set at 1
Procedure: The estrogen receptor competitor assay kits (Panvera, Madison, Wis.) were used to determine the ability of test molecules to displace the fluormone, ES2, from hER -ES2 or hER -ES2 complex. Serial dilutions of each test molecule were prepared in methanol or DMSO. The recombinant hER or hER (7 nM) was preincubated with ES2 (1 nM) in screening buffer. After the preincubation, the test molecules and ER-ES2 complex solution were added into the 96-well microplate to produce a final volume of 100 μl per well. The reaction was incubated at room temperature for 1 hr and the polarization values were measured by using fluorescence microplate reader, Polarion (Tecan, Research Triangle Park, N.C.) with excitation wavelength 495 nm and emission wavelength 535 nm. The polarization value versus test molecule concentration curves was analyzed by graphfit software to generate IC50 values.
In this assay, recombinant hER and the commercial synthetic estrogen, ES2 containing fluorescence polarization property, are used. This assay is a homogenous assay. When the assay solution only contains ES2, the solution exerts weak fluorescence polarization property due to the quick rotation of free ES2 molecule. […] Addition of the antiestrogen to the ES2/hER displaces ES2 from hER and results in the whole solution exerting less fluorescence polarization property than the solution without antiestrogen.

[3] = tested on: MCF-7 cells; experiment: hERα positive breast cancer cell proliferation assay; format: cell-based, human; conditions: for activity at 5 µM: Homo sapiens, MCF7, 72 h, MCF-7 cells, DMSO = 1, read-out: Relative Cancer Cell Proliferation Effects at 5 μM
Procedure: MCF-7 or MDA-MB-231 cells were inoculated into 12-well culture plates at 10000 cells in 2 ml maintained medium per well. Cells were allowed to attach to the bottom for 24 hrs incubation, then the seeding medium was removed and replaced by the experimental medium (phenol red-free DMEM supplemented with 5% charcoal-stripped fetal bovine serum and Penicillin (100 unit/ml)/Streptomycin ([…])). After 24 hr incubation, the test molecules dissolved in DMSO were added in the wells. […] The culture was continued for 3 days and the medium and tested compounds were replaced every two days. The final cell numbers were estimated with CellTiter proliferation assay kit (Promega, Madison, Wis.) by measuring the absorbance at 570 nm, which is directly proportional to the number of living cells in the culture.
MCF-7 cell line was used to perform this assay and the description of this assay as mentioned above. […] DMSO was used as reference.

Compound	Relative Estrogenic Activity [1]	estrogenic effect [1]	Relative Antiestrogenic Activity at 2.5 μM [1]	Relative Binding Affinity [2]	inhibition effects against MCF-7 cell proliferation [3]	activity at 5 µM [3]	antiestrogenic / inhibition activity [1]	binding affinity for hER compared with tamoxifen [2]	inhibition of MCF-7 cell proliferation ([3]; relative to DMSO)
CCCCNC(=O)CCCCCCCCCCOCC1Cc2ccccc2CN1C(=O)c1cccc(OC)c1 (stereo not shown) [Compound 4]	0.78	do not exert any estrogenic effects	0.79	0.192	slightly lower inhibition effects than compound 6	70%			
CCCCNC(=O)CCCCCCCCCCOCC1Cc2ccccc2CN1C(=O)c1cccc(O)c1 (stereo not shown) [Compound 6]	1.03	do not exert any estrogenic effects	0.44	5.0	strongest inhibition effects	62%	strongest inhibition activity	highest binding affinity and higher than tamoxifen	38%
CCCCNC(=O)CCCCCCCCCCOCC1Cc2ccccc2CN1C(=O)c1ccc(O)cc1 (stereo not shown) [Compound 7]	2.05	highest estrogenic effect	0.76	1.79		95%	moderate antiestrogenic activity	highest binding affinity and higher than tamoxifen	
